Results from PMC10180488, “Novel Derivatives of Eugenol as a New Class of PPARγ Agonists in Treating Inflammation: Design, Synthesis, SAR Analysis and In Vitro Anti-Inflammatory Activity” (Molecules, 2023).
Values joined by “and” are separate entries in the source; they are usually repeats but may differ in a detail not shown here. Equal values may be shown once.

Key:
[1] = tested on: human red blood cells (HRBC); experiment: HRBC membrane stabilization method; details: for HRBC membrane stabilization (percentage protection against HRBC lysis): mean ± SD (n = 3); for IC50: Homo sapiens, Erythrocyte, read-out: IC50 Values, HRBC membrane stabilization method
Description: The principle of this procedure is to stabilize the membrane of human red blood cells by hypotonic membrane lysis. […] Lysosomal enzyme levels typically decrease as the HRBC membrane is stabilized.
The packed cells in this blood solution were separated after centrifugation at 3000 rpm [41]. The packed cells were cleaned using an isosaline solution, and then, isosaline was used to prepare a 10% v/v suspension. This HRBC suspension was employed to estimate its anti-inflammatory properties. Different concentrations of the synthesized compounds and the reference standard were each combined with 1 mL of phosphate buffer (pH 7.4), 2 mL of hyposaline, and 0.5 mL of HRBC solution. A total of 2.0 mL of distilled water was utilized as the control. The assay mixtures were all centrifuged at 3000 rpm after 30 min of incubation at 37°C. The following formula was used to determine the percentage of stabilized HRBC membranes. Percentage protection= 100 − (OD sample/OD control) × 100

human PPARγ- LBD = biological target: T1, human PPARγ- LBD (Homo sapiens, UniProt P37231); experiment: Lanthascreen TR-FRET PPARγ competitive binding assay; details: for IC50: Lanthascreen TR-FRET competitive binding; for Raw Data / Raw Data - Background: TR-FRET
T1 construct: a mixture of a human PPARγ- LBD labelled with glutathione S-transferase (GST)
T1 sequence (P37231 238-503 limits assumed): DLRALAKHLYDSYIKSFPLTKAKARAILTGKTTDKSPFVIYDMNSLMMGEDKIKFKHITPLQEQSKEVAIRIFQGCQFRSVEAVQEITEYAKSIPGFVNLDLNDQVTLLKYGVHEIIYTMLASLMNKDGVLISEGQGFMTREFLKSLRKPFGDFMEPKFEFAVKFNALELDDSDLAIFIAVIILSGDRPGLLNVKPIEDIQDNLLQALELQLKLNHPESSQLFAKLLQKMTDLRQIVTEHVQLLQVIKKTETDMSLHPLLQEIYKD
Description: Using the Lanthasreen TR-FRET assay, the synthesized compounds were first preliminary tested for the PPARγ binding affinity. […] A chemical under test displaces the tracer from PPAR-LBD, which lowers the TR-FRET ratio and decreases the FRET signal Figure 8 [33].
A multimode low-volume proxy plate reader was used to read the plates after one hour of incubation. Then, a mixture of a human PPARγ- LBD labelled with glutathione S-transferase (GST), a fluorescent small pan-PPAR ligand (FluormoneTM Pan-PPAR Green), and terbium-labeled anti-GST antibody was added.

egg albumin = egg albumin (Gallus gallus, UniProt P01012); experiment: Albumin denaturation assay; assay type: biochemical, hen; details: mean ± SD (n = 3), read-out: Percentage inhibition of denaturation of albumin
Description: Inflammation is accompanied by protein denaturation. Tissue protein denaturation is a well-established cause of Inflammatory illnesses. Inflammatory disorders including rheumatoid arthritis, diabetes, and cancer have been linked to the denaturation of proteins. The ability of a substance to stop proteins from becoming denaturized has a role in the prevention of inflammatory disorders. […] Denaturation of proteins is accomplished by keeping the reaction mixture in a water bath at 70 °C for […].
Minor modifications were made to Mizushima and Kobayashi’s and Sakat et al. methodologies. The reaction mixture containing 0.2 mL of egg albumin (from a fresh hen’s egg) is mixed with 2.8 mL of phosphate-buffered saline (PBS, pH 6.4) and 2 mL of synthesized compounds in varying concentrations. The mixture was then heated at 70 °C for 5 min after being incubated at 37 °C for approximately 15–20 min. After cooling, their absorbance was measured at 660 nm spectrometrically. Three duplicates of the experiment were carried out. […] Percentage inhibition = (OD control − OD sample/OD control) × 100

egg albumin, sequence (P01012 2-386): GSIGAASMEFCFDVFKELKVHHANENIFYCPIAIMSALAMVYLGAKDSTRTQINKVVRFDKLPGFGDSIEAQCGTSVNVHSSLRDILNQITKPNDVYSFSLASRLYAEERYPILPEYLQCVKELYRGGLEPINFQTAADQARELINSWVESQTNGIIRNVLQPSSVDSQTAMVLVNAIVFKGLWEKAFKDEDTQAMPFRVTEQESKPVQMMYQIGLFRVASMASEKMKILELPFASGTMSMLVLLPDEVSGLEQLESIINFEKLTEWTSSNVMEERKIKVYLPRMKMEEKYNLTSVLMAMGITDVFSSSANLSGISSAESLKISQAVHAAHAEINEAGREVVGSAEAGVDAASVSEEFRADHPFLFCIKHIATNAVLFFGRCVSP

Row | Structure (SMILES) | HRBC membrane stabilization (percentage protection against HRBC lysis) ([1]; 6.25 µM) [%] | HRBC membrane stabilization (percentage protection against HRBC lysis) ([1]; 12.5 µM) [%] | HRBC membrane stabilization (percentage protection against HRBC lysis) ([1]; 25 µM) [%] | HRBC membrane stabilization (percentage protection against HRBC lysis) ([1]; 50 µM) [%] | HRBC membrane stabilization (percentage protection against HRBC lysis) ([1]; 100 µM) [%] | HRBC membrane stabilization (percentage protection against HRBC lysis) ([1]; 200 µM) [%] | HRBC membrane stabilization (percentage protection against HRBC lysis) ([1]; 400 µM) | IC50 [1] [µM] | IC50 (human PPARγ- LBD) [µM] | Raw Data (human PPARγ- LBD; 0.0000512 µM) [RLU] | Raw Data - Background (human PPARγ- LBD; 0.0000512 µM) [RLU] | Raw Data (human PPARγ- LBD; 0.000256 µM) [RLU] | Raw Data - Background (human PPARγ- LBD; 0.000256 µM) [RLU] | inhibition at 6.25 µM (egg albumin) [%] | inhibition at 12.5 µM (egg albumin) [%] | inhibition at 25 µM (egg albumin) [%] | inhibition at 50 µM (egg albumin) [%] | inhibition at 100 µM (egg albumin) [%] | inhibition at 200 µM (egg albumin) [%] | inhibition at 400 µM (egg albumin) [%] | further results
1 | C=CCc1ccc(OCC(=O)Nc2ccccc2Cl)c(OC)c1 [Compound 1f, 2-(4-Allyl-2-methoxyphenoxy)-N-(2-chlorophenyl)acetamide] | 15.17 ± 0.64 | 25.09 ± 0.66 | 41.88 ± 0.55 | 49.50 ± 0.46 | 58.61 ± 0.38 | 73.43 ± 0.36 | 85.79 ± 0.18% | 55 | 5.15 | 1.795 | 2.02 | 1.801 | 2.04 | 7.74 ± 0.34 | 13.6 ± 0.23 | 24.4 ± 0.48 | 31 ± 0.55 | 43.08 ± 0.43 | 50 | 62.41 ± 0.42 | Raw Data (human PPARγ- LBD; 0.00128 µM): 1.764 RLU; Raw Data - Background (human PPARγ- LBD; 0.00128 µM): 2 RLU; Raw Data (human PPARγ- LBD; 0.0064 µM): 1.826 RLU; Raw Data - Background (human PPARγ- LBD; 0.0064 µM): 2.061 RLU; Raw Data (human PPARγ- LBD; 0.032 µM): 1.766 RLU; Raw Data - Background (human PPARγ- LBD; 0.032 µM): 1.99 RLU; Raw Data (human PPARγ- LBD; 0.16 µM): 1.711 RLU; Raw Data - Background (human PPARγ- LBD; 0.16 µM): 1.945 RLU; Raw Data (human PPARγ- LBD; 0.8 µM): 1.881 RLU; Raw Data - Background (human PPARγ- LBD; 0.8 µM): 2.056 RLU; Raw Data (human PPARγ- LBD; 4 µM): 1.247 RLU; Raw Data - Background (human PPARγ- LBD; 4 µM): 1.542 RLU; Raw Data (human PPARγ- LBD; 20 µM): 0.799 RLU; Raw Data - Background (human PPARγ- LBD; 20 µM): 0.862 RLU; Raw Data (human PPARγ- LBD; 100 µM): 0.7757 RLU; Raw Data - Background (human PPARγ- LBD; 100 µM): 0.9427 RLU
2 | C=CCc1ccc(OCC(=O)Nc2ccccc2)c(OC)c1 [Compound 1a, 2-(4-Alyl-2-methoxyphenoxy)-N-phenylacetamide] | 4.79 ± 0.48 | 10.45 ± 0.38 | 21.40 ± 0.36 | 28.78 ± 0.66 | 37.88 ± 0.28 | 47.23 ± 0.48 | 60.88% and 60.88 ± 0.36% | 79.5 | 29.8 | 1.916 | 1.681 | 1.915 | 1.68 | 1.67 ± 0.37 | 5.32 ± 0.37 | 10.2 ± 0.24 | 14.5 ± 0.43 | 19.2 ± 0.24 | 25.1 ± 0.31 | 32.3 ± 0.37 | Raw Data (human PPARγ- LBD; 0.00128 µM): 1.916 RLU; Raw Data - Background (human PPARγ- LBD; 0.00128 µM): 1.681 RLU; Raw Data (human PPARγ- LBD; 0.0064 µM): 1.92 RLU; Raw Data - Background (human PPARγ- LBD; 0.0064 µM): 1.685 RLU; Raw Data (human PPARγ- LBD; 0.032 µM): 2.058 RLU; Raw Data - Background (human PPARγ- LBD; 0.032 µM): 1.823 RLU; Raw Data (human PPARγ- LBD; 0.16 µM): 1.971 RLU; Raw Data - Background (human PPARγ- LBD; 0.16 µM): 1.736 RLU; Raw Data (human PPARγ- LBD; 0.8 µM): 1.899 RLU; Raw Data - Background (human PPARγ- LBD; 0.8 µM): 1.664 RLU; Raw Data (human PPARγ- LBD; 4 µM): 1.717 RLU; Raw Data - Background (human PPARγ- LBD; 4 µM): 1.483 RLU; Raw Data (human PPARγ- LBD; 20 µM): 1.047 RLU; Raw Data - Background (human PPARγ- LBD; 20 µM): 0.813 RLU; Raw Data (human PPARγ- LBD; 100 µM): 0.245 RLU; Raw Data - Background (human PPARγ- LBD; 100 µM): 0.01 RLU
3 | C=CCc1ccc(OCC(=O)Nc2ccccc2C)c(OC)c1 [Compound 1c, 2-(4-Allyl-2-methoxyphenoxy)-N-(o-tolyl)acetamide] | 6.21 ± 0.38 | 14.26 ± 0.38 | 24.78 ± 0.38 | 29.08 ± 0.46 | 40.65 ± 0.28 | 50.92 ± 0.48 | 62.54% and 62.54 ± 0.36% | 79.7 | 8.2 | 1.881 | 1.647 | 1.88 | 1.646 | 1.77 ± 0.37 | 5.32 ± 0.37 | 8.42 ± 0.24 | 13.8 ± 0.43 | 19.2 ± 0.24 | 27.26 ± 0.24 | 34.03 ± 0.31 | Raw Data (human PPARγ- LBD; 0.00128 µM): 1.88 RLU; Raw Data - Background (human PPARγ- LBD; 0.00128 µM): 1.637 RLU; Raw Data (human PPARγ- LBD; 0.0064 µM): 1.886 RLU; Raw Data - Background (human PPARγ- LBD; 0.0064 µM): 1.651 RLU; Raw Data (human PPARγ- LBD; 0.032 µM): 1.902 RLU; Raw Data - Background (human PPARγ- LBD; 0.032 µM): 1.657 RLU; Raw Data (human PPARγ- LBD; 0.16 µM): 1.994 RLU; Raw Data - Background (human PPARγ- LBD; 0.16 µM): 1.76 RLU; Raw Data (human PPARγ- LBD; 0.8 µM): 1.991 RLU; Raw Data - Background (human PPARγ- LBD; 0.8 µM): 1.756 RLU; Raw Data (human PPARγ- LBD; 4 µM): 1.33 RLU; Raw Data - Background (human PPARγ- LBD; 4 µM): 1.096 RLU; Raw Data (human PPARγ- LBD; 20 µM): 0.1617 RLU; Raw Data - Background (human PPARγ- LBD; 20 µM): 0.02704 RLU; Raw Data (human PPARγ- LBD; 100 µM): 0.06866 RLU; Raw Data - Background (human PPARγ- LBD; 100 µM): -0.146 RLU
4 | O=C(O)Cc1ccccc1Nc1c(Cl)cccc1Cl [Standard Diclofenac, Diclofenac, reference compound] | 15.99 ± 0.64 | 26.93 ± 0.55 | 43.54 ± 0.48 | 52.58 ± 0.48 | 62.30 ± 0.59 | 76.87 ± 0.64 | 90.77 ± 0.36% | 48.1 | – | – | – | – | – | 10.2 ± 0.55 | 15.3 ± 0.43 | 28.2 ± 0.61 | 38.93 ± 0.37 | 49.5 ± 0.51 | 60.29 ± 0.36 | 68.54 ± 0.43 | HRBC membrane stabilization (percentage protection against HRBC lysis) ([1]; 400 µM, listed as diclofenac sodium): 90.77% and 90%
